Converted amounts (≈) assume the structure as drawn. Where two headings read alike, the source gives them in different places.
Assays:
[1] = Solubility of Givinostat (ITF2357) in water, buffers and aqueous vehicles; type: physicochemical; conditions: phosphate buffer
serum TNFα = conditions: mice, oral administration of 1.0 to 10 mg/kg; cited from earlier work
[2] = Solubility of Givinostat (ITF2357) in water, buffers and aqueous vehicles; type: physicochemical
Experimental: Solubility of Givinostat was tested in aqueous vehicles at pH 6, containing Phosphate buffer. Tween 20 as wetting agent and either Sorbitol or Sucrose (40% w/v). To this aim, an amount of Givinostat sufficient to ensure saturation was mixed with 15 mL of each vehicle in separate vials. These vials were shaken at 25° C.±PC for at least 24 hours in order to obtain equilibrium. The saturated solution was then separated from the excess solid by filtration and Givinostat (ITF2357) was quantitated in the filtrate by UV-Vis spectrophotometric technique.
In table 4 solubility value determined on ITF 2357 saturated solution in different buffer at pH 4.5 are reported.
Solubility of ITF2357 determined in suspension vehicles having compositions as described in Example 1, thus containing Sorbitol at 40% w/v and Tartrate buffer, at different pH (pH range from 4 to 7 adjusted with Tartaric Acid or Sodium Hydroxide) are shown in Table 5.

serum IFNγ = conditions: mice, oral administration of 1.0 to 10 mg/kg; cited from earlier work
IL-1β = conditions: LPS-stimulated cultured human PBMCs; read-out: concentration reducing by 50% the release of intracellular interleukin IL-1β; cited from earlier work
[3] = Chemical stability of ITF2357 solutions (degradation on storage); type: physicochemical
Experimental: For example, solubility of ITF2357 in phosphate buffers at pH 2, 4.5, 6 and 8 is about 1.13-2.88-0.77 and 0.05 mg/mL respectively. Thus, it is technically possible to prepare aqueous solutions of ITF2357, having concentrations, e.g., between 0.02 and 0.3% w/v, intended for oral administration. However, because of the poor Givinostat solubility, large volume of an oral solution formulation would need to be administered to allow administration of effective drug doses and this pose patient compliance issues. […] In a preferred embodiment, the suspension according to the invention further comprising at least a buffering agent.

interferon-γ (IFNγ) = conditions: LPS-stimulated cultured human PBMCs; read-out: concentration reducing by 50% the production of IFNγ; cited from earlier work
[4] = at 20° C.; cited from earlier work

In the case of CCN(CC)Cc1ccc2cc(COC(=O)Nc3ccc(C(=O)NO)cc3)ccc2c1 [ITF2357, Givinostat], the solubility ([1]; pH 2, aqueous buffer, phosphate buffer pH 2) is given as ~1130 µg/mL (≈ 2680 µM), the solubility ([1]; pH 6, aqueous buffer, phosphate buffer pH 6) is given as ~770 µg/mL (≈ 1830 µM) and the “reduction of LPS-induced serum TNFα” value (serum TNFα) is given as “more than 50%”. The solubility ([2]; acetate buffer, pH 4.5, aqueous buffer, thermodynamic from solid, Acetate buffer pH 4.5, read-out: ITF2357 solubility) was 5100 µg/mL (≈ 12100 µM), the solubility ([2]; aqueous vehicle, 25 °C, pH 6, aqueous with cosolvent or surfactant or cyclodextrin, thermodynamic from solid, Phosphate buffer pH 6, Tween 20, Sorbitol 10% (w/v), 25° C., read-out: ITF2357 Solubility) was 2340 µg/mL (≈ 5550 µM) and the solubility ([2]; aqueous vehicle, 25 °C, pH 6, aqueous with cosolvent or surfactant or cyclodextrin, thermodynamic from solid, Phosphate buffer pH 6, Tween 20, Sorbitol 20% (w/v), 25° C., read-out: ITF2357 Solubility) was 2110 µg/mL (≈ 5000 µM). The solubility ([2]; aqueous vehicle, 25 °C, pH 6, aqueous with cosolvent or surfactant or cyclodextrin, thermodynamic from solid, Phosphate buffer pH 6, Tween 20, Sorbitol 30% (w/v), 25° C., read-out: ITF2357 Solubility) was 2020 µg/mL (≈ 4790 µM), the solubility ([2]; aqueous vehicle, 25 °C, pH 6, aqueous with cosolvent or surfactant or cyclodextrin, thermodynamic from solid, Phosphate buffer pH 6, Tween 20, Sorbitol 40% (w/v), 25° C., read-out: ITF2357 Solubility) was 1930 µg/mL (≈ 4580 µM) and the solubility ([2]; aqueous vehicle, 25 °C, pH 6, aqueous with cosolvent or surfactant or cyclodextrin, thermodynamic from solid, Phosphate buffer pH 6, Tween 20, Sucrose 40% (w/v), 25° C., read-out: ITF2357 Solubility) was 3880 µg/mL (≈ 9190 µM). For the same compound, the solubility ([2]; phosphate buffer pH 4.5) was 2880 µg/mL (≈ 6830 µM), the solubility ([2]; phosphate buffer, pH 4.5, aqueous buffer, thermodynamic from solid, phosphate buffer pH 4.5, read-out: solubility) was ~2880 µg/mL (≈ 6830 µM) and the solubility ([2]; phosphate buffer, pH 8, aqueous buffer, phosphate buffer pH 8, read-out: solubility) was ~50 µg/mL (≈ 119 µM). For the same compound, the solubility ([2]; purified water, water, purified water, read-out: solubility) was ~2500 µg/mL (≈ 5930 µM), the solubility ([2]; suspension vehicle, pH 4, aqueous with cosolvent or surfactant or cyclodextrin, thermodynamic from solid, Tartrate buffer pH = 4.0, Tween 20, Sorbitol 40% w/v, read-out: ITF2357 solubility) was 210 µg/mL (≈ 498 µM) and the solubility ([2]; suspension vehicle, pH 5, aqueous with cosolvent or surfactant or cyclodextrin, thermodynamic from solid, Tartrate buffer pH = 5.0, Tween 20, Sorbitol 40% w/v, read-out: ITF2357 solubility) was 150 µg/mL (≈ 356 µM). The solubility ([2]; suspension vehicle, pH 5.5, aqueous with cosolvent or surfactant or cyclodextrin, thermodynamic from solid, Tartrate buffer pH = 5.5, Tween 20, Sorbitol 40% w/v, read-out: ITF2357 solubility) was 160 µg/mL (≈ 380 µM), the solubility ([2]; suspension vehicle, pH 6, aqueous with cosolvent or surfactant or cyclodextrin, thermodynamic from solid, Tartrate buffer pH = 6.0, Tween 20, Sorbitol 40% w/v, read-out: ITF2357 solubility) was 150 µg/mL (≈ 356 µM) and the solubility ([2]; suspension vehicle, pH 6.5, aqueous with cosolvent or surfactant or cyclodextrin, thermodynamic from solid, Tartrate buffer pH = 6.5, Tween 20, Sorbitol 40% w/v, read-out: ITF2357 solubility) was 160 µg/mL (≈ 380 µM). The solubility ([2]; suspension vehicle, pH 7, aqueous with cosolvent or surfactant or cyclodextrin, thermodynamic from solid, Tartrate buffer pH = 7.0, Tween 20, Sorbitol 40% w/v, read-out: ITF2357 solubility) was 150 µg/mL (≈ 356 µM), the solubility ([2]; tartrate buffer, pH 4.5, aqueous buffer, thermodynamic from solid, Tartrate buffer pH 4.5, read-out: ITF2357 solubility) was 230 µg/mL (≈ 546 µM) and the “reduction of LPS-induced serum IFNγ” value (serum IFNγ) was “more than 50%”. The IC50 (IL-1β) was 12 nM, the degradation of solution ([3]; phosphate buffer pH 2, 6 days at 40° C.) was “about 6.3%” and the degradation of solution ([3]; phosphate buffer pH 4.5, 6 days at 40° C.) was ~0.8%. For the same compound, the degradation of solution ([3]; phosphate buffer pH 6, 6 days at 40° C.) was ~0.5%, the degradation of solution ([3]; phosphate buffer pH 8, 6 days at 40° C.) was ~2.1% and the IC50 (interferon-γ (IFNγ)) was 25 nM.

In the case of OC[C@H]1O[C@@](CO)(O[C@H]2O[C@H](CO)[C@@H](O)[C@H](O)[C@H]2O)[C@@H](O)[C@@H]1O [Sucrose], the “parts of water in which 1 part dissolves” value [4] is listed as 0.3 parts of water.

— patent US10688047B2, “Physically and chemically stable oral suspensions of givinostat” (ITALFARMACO SPA, priority 2015, dated 2020)
